# Laboratory results published in US20100016240A1, “FACILITATING CELLS AND DIABETES AND METHODS RELATED THERETO” (priority 2008, published 2010).
# B1: FL: Recombinant human FL (expressed from CHO cells), provided by Amgen; human FLT3 ligand sequence shown in SEQ ID NO:2 (protein)
# chain: MTVLAPAWSPTTYLLLLLLLSSGLSGTQDCSFQHSPISSDFAVKIRELSDYLLQDYPVTVASNLQDEELCGGLWRLVLAQRWMERLKTVAGSKMQGLLERVNTEIHFVTKCAFQPPPSCLRFVQTNISRLLQETSEQLVALKPWITRQNFSRCLELQCQPDSSTLPPPWSPRPLEATAPTAPQPPLLLLLLLPVGLLLLAAAWCLHWQRTRRRTPRPGEQVPPVPSPQDLLLVEH
# modifications: Homo sapien
# Legend:
# [1] = test system: p-preDC FC from NOD or NOR mice; experiment: Chemokine and cytokine production by p-preDC FC after CpG-ODN stimulation (LINCOplex multiplex immunoassay); assay type: cell-based, mouse
# Description: (§1) FIG. 2. Expression of activation markers on FC. (A) Sorted CD8^+/TCR^− FC (100,000) from NOD or NOR BM were cultured with medium or CpG-ODN for 18 h and stained with anti-MHC Class II I-A^d, CD86 or CD80 FITC labeled mAb, or isotype controls. The data shown are representative of three experiments. (B) Level of expression of activation markers on FC with or without CpG-ODN stimulation. The results are percent of CD8^+/TCR^− FC total from 3 separate experiments. (C) The morphology of FC was examined using Wright-Giemsa staining under optical microscopy after CpG-ODN stimulation. (D) P-preDC FC were cultured with CpG-ODN or medium only. Culture cell-free supernatants were collected after 18 h and MIP-1α/CCL3, MCP-1/CCL2, RANTES/CCL5, IP-10, IL-6, GM-CSF, and TNF-α were measured by LINCO plex multiplex immunoassay.
# (§2) FC were cultured alone or with 1 μM TLR-9 ligand CpG-ODN 1668 (TCCATGACGTTCCGATGCT) (SEQ ID NO:1) (GIBCO BRL Custom Primers) (13) for 18 h. Supernatants were assayed for cytokines by Linco Diagnostic (St Charles, Mo.) using LINCOplex™ Multiplex immunoassay and cells were stained with anti-CD80, anti-CD86, or anti-MHC class II I-A^d (39-10-8) FITC mAb, with appropriately matched isotype controls.
# We also examined chemokine and cytokine production by NOD and NOR p-preDC FC after CpG-ODN stimulation. In the presence of CpG-ODN, p-preDC FC produced more MIP-1α/CCL3, RANTES/CCL5, IP-10, IL-6, and TNF-α, compared to the level of those in absence of stimulation (FIG. 2D).
# [2] = test system: CD8+/TCR- FC from NOD or NOR BM; experiment: Activation markers and morphology of sorted CD8+/TCR- FC cultured with CpG-ODN; assay type: cell-based, mouse
# Description: as §1, §2
# (§3) Wright-Giemsa staining was performed on cytospins of 100,000 FC after fixed in methanol. Slides were examined for dendritic morphology under optical microscopy.
# We evaluated whether NOD FC resemble NOR FC in response to CpG-ODN stimulation.
# [3] = test system: p-preDC FC; conditions: cited from earlier work
# [4] = test system: HSC engraftment in B10 recipients; experiment: Facilitation of HSC engraftment by FL-mobilized PB FC in allogeneic recipients (NOD to B10); assay type: in vivo, mouse
# Description: (§4) FIG. 6. FL-mobilized PB FC facilitate HSC engraftment in allogeneic recipients. Recombinant human FL (expressed from CHO cells) (kindly provided by Amgen; Thousand Oaks, Calif.) was diluted in 0.1% mouse serum albumin (MSA; Sigma, St Louis, Mo.) at a concentration of 100 μg/ml. Donor NOD female mice were injected with 10 μg of FL once daily subcutaneously from day 0 to day 9. Control mice received saline injections. (A) Flow cytometric analysis of subpopulations in sorted FL-mobilized PB FC. (B) Sorted FL-PB FC were examined after Wright-Giemsa staining by optical microscopy. (C) Survival of recipients of HSC plus FL-mobilized PB FC in allogeneic model (NOD→B10). B10 recipients were conditioned with 950 cGy TBI and transplanted with […] from untreated NOD donors either alone or mixed with 30,000 purified FC from untreated NOD bone marrow, or from FL-mobilized PB FC from NOD mice. (D) and (E) Multilineage typing of representative B10 recipients of NOD HSC alone or recipients of NOD HSC plus FL-PB FC. Multilineage data are from PB 3 months after transplantation and analyzed based on the lymphoid and myeloid gate. Data shown are from one representative recipient. A total of 3 to 5 recipients were analyzed per group.
# In the syngeneic model, recipients were conditioned with 950 cGy TBI from a Cesium source (Nordion, Ontario, ON, Canada) and transplanted with 500 HSC±30,000 FC populations by tail vein injection≧6 h after irradiation (14). In the allogeneic model, recipients conditioned with 950 cGy TBI were transplanted with 5,000 HSC±30,000 FL-PB FC (4).
# Engraftment of donor cells was evaluated by PBL typing using 3-color flow cytometry, as previously described (15).
# It was next evaluated whether FL-treatment can restore the facilitating function of NOD FC. […] To test function of FL-PB FC, HSC were sorted from BM of untreated NOD mice and FC from the PB of FL-treated NOD mice. Conditioned B10 recipients received 5,000 HSC plus 30,000 FL-PB FC. Control mice were transplanted with 5,000 HSC±30,000 FC from BM of untreated NOD mice. […] 13% and 20% of recipients of HSC alone (n=9) or HSC plus FC (n=8) from untreated NOD mice survived over 120 days, respectively (FIG. 6C).
# Three-color flow cytometric analysis was performed.
# [5] = test system: FC in peripheral blood of NOD mice; experiment: FL treatment of NOD donor mice: phenotype and morphology of FL-mobilized PB FC; assay type: in vivo, mouse
# Description: as §4
# Sorted FC (purity was ≧95%) were incubated with Fc receptor block (anti-CD16/CD32) before staining with lineage-specific markers: anti-CD11 FITC, CD11b APC, CD14 FITC, NK1.1 FITC, DX5 FITC, B220 PerCP, Gr-1 APC and CD19 APC, as previously described (4). Sorted FC were analyzed for p-preDC FC as B220^+/CD11c^+/CD11b^− using Cell Quest Software (Becton Dickinson).
# as §3
# To test whether FL-treatment can restore the function of NOD FC, the phenotype and function of FL-PB FCs were evaluated. NOD mice were treated with FL for 10 days. FC were sorted from PB, and sorted FC were stained with B220, CD11c, CD19, NK1.1DX5, and CD11b mAbs.
# [6] = test system: PB p-preDC; conditions: administration of FL into human volunteers; cited from earlier work
# [7] = test system: NOD mice; conditions: cited from earlier work
# [8] = in response to CpG-ODN stimulation
# [9] = with CpG-ODN compared to absence of stimulation, 18 h supernatant
# [10] = treatment of NOD donors with FL
# [11] = FL-PB FC versus untreated NOD BM FC
# [12] = NOD mice, 10 μg FL once daily s.c. for 10 days, FC sorted from PB
molecule,measurement,setting,value
"CpG-ODN: TLR-9 ligand CpG-ODN 1668 (TCCATGACGTTCCGATGCT) (SEQ ID NO:1) (listed as DNA, chemistry not given here)","IL-6 amount, NOR p-preDC FC compared to NOD p-preDC FC",[1]; after CpG-ODN stimulation,5 ×
same,"MIP-1α/CCL3 amount, NOR p-preDC FC compared to NOD p-preDC FC",[1]; after CpG-ODN stimulation,2.1 ×
same,"RANTES/CCL5 amount, NOR p-preDC FC compared to NOD p-preDC FC",[1]; after CpG-ODN stimulation,3.5 ×
same,"TNF-α amount, NOR p-preDC FC compared to NOD p-preDC FC",[1]; after CpG-ODN stimulation,1.9 ×
same,GM-CSF production by NOD p-preDC FC,[1]; [8],do not
same,GM-CSF production by NOR p-preDC FC,[1]; [8],more efficiently
same,IL-6 production by p-preDC FC,[1]; [9],produced more
same,IP-10 production by p-preDC FC,[1]; [9],produced more
same,MIP-1α/CCL3 production by p-preDC FC,[1]; [9],produced more
same,RANTES/CCL5 production by p-preDC FC,[1]; [9],produced more
same,TNF-α production by p-preDC FC,[1]; [9],produced more
same,CD80 expression on NOD FC,"[2]; NOD BM FC, 1 μM CpG-ODN, 18 h",markedly decreased
same,CD86 expression on NOD FC,"[2]; NOD BM FC, 1 μM CpG-ODN, 18 h",up-regulated
same,Morphology of NOD FC,"[2]; NOD FC after CpG treatment, Wright-Giemsa",did not exhibit a mature morphology
same,CD86 expression on NOR FC,"[2]; NOR BM FC, 1 μM CpG-ODN, 18 h",up-regulated
same,Morphology / activation state of NOR FC,"[2]; NOR FC after CpG-ODN stimulation, compared to NOD FC, Wright-Giemsa",more activated state
same,Interferon (IFN)-α and tumor necrosis factor (TNF)-α production by p-preDC FC,[3]; in response to TLR-9 ligand (CpG-ODN) stimulation,produce
same,CD4+/CD25- T cells differentiation into CD4+/CD25+/FoxP3+ Treg cells in vitro,[3]; p-preDC FC stimulated with CpG-ODN,promote
B1,Recipients survived 120 days,"[4]; B10 recipients (950 cGy TBI) of 5,000 untreated NOD HSC plus 30,000 PB FC from FL-treated NOD mice, n=8",63%
same,Engraftment of HSC,[4]; HSC plus PB FC from FL-treated NOD mice in B10 recipients,significantly enhanced
same,Multilineage donor chimerism,"[4]; recipients of HSC plus FL-PB FC, followed >4 months, three-color flow cytometry",showed donor chimerism for multilineages
same,Facilitating function of NOD FC in vivo,[4]; [10],restored
same,Percentage of CD19+ FC,[5]; [11],remained at same levels
same,Percentage of p-preDC FC,[5]; [11],remained at same levels
same,B220-/CD11c+/CD11b+ DC subpopulation in FL-PB FC,[5]; [12],significant increase
same,NK1.1+DX5+ subpopulation in FL-PB FC,[5]; [12],significant increase
same,Total number of FCs in peripheral blood,[5]; [10],expanded
same,Activation state (dendritic morphology) of FL mobilized NOD PB FC,"[5]; versus untreated NOD BM FC, Wright-Giemsa",more activated state
same,Number of PB p-preDC in humans,[6],increase
same,Diabetes progression,[7]; FL treatment of NOD mice,significant delay
same,"Production of defective mature myeloid DC, plasmacytoid DC in spleen and pancreatic lymph nodes",[7]; FL treatment of NOD mice,restored production
same,Treg in pancreatic lymph nodes,[7]; FL treatment of NOD mice,significantly increased
same,Insulitis and progression to diabetes,[7]; prediabetic NOD mice treated with FL,significantly decreased
